Among the data in US20230000842A1, “METHODS OF TREATING CARTILAGE DISORDERS THROUGH INHIBITION OF CLK AND DYRK” (SAMUMED, LLC, priority 2019, published 2023) are EC50 and Emax values, retold here.

The target of one assay is CLK2 kinase (Homo sapiens, UniProt P49760). The assay is described as follows: CLK2 kinase activity assay (Z-lyte FRET).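 Note: FRET read-out as coumarin to fluorescein emission ratio, unphosphorylated peptide as 0% and phosphorylated peptide as 100% controls, duplicate reactions, non-linear regression fit of dose-response curves.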 The following applies: Z-lyte Ser/Thr 6 peptide, 60 μM ATP, 1 h at room temperature. Type of assay: biochemical.
CLK2 kinase, sequence (P49760 whole entry): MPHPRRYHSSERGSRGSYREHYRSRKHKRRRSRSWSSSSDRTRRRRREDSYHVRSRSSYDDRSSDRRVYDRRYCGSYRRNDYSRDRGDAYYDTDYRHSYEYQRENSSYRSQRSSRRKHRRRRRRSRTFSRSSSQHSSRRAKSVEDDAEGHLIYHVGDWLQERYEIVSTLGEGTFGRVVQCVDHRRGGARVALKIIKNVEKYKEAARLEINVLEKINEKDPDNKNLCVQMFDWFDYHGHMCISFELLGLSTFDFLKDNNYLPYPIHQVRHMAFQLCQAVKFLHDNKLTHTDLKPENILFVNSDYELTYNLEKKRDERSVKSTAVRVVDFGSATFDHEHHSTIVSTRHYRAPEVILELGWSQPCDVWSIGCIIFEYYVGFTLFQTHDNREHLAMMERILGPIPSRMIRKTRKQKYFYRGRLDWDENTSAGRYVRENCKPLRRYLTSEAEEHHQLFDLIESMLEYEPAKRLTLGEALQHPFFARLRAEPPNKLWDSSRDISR
A further assay has as its target CLK3 kinase (Homo sapiens, UniProt P49761). The assay is described as follows: CLK3 kinase activity assay (Z-lyte FRET).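 Note: kinase activity read as coumarin/fluorescein emission ratio by FRET, unphosphorylated peptide as 0% and phosphorylated peptide as 100% control, values from non-linear regression of dose-response curves.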 Type of assay: biochemical. The settings on record: Z-lyte Ser/Thr 18 peptide, 156 μM ATP, 1 h at room temperature.
The test system of assay [1] is primary human mesenchymal stem cells (hMSCs). In words: Chondrogenesis screening using primary human mesenchymal stem cells. The class given is cell-based. The settings on record: Homo sapiens, Mesenchymal stem cells, hMSC chondrogenesis; for EC50: concentration required to induce 50% levels of chondrogenesis with TGF-β3 as positive control, read-out: Conc (nM) of 50% TGF-β3 activity; for Emax: maximum activity relative to TGF-β3 (10 ng/mL) positive control, read-out: Max. Activity as % TGF-β3 activity. In a few lines: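 Derived values are EC50 for 50% chondrogenesis, maximal activity and the dose giving it. These come from nodule area in passage 3–6 primary hMSCs, expressed as fold change over the mean of 3 same-plate DMSO wells, 2–3 replicates per concentration. TGF-β3 served as positive control.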

For assay [2], the system named is Wnt pathway activity (SW480 colon carcinoma cells stably expressing the Sp5-Luc reporter). The assay is described as follows: Wnt pathway activity screening assay (Sp5-Luc reporter gene assay). The following applies: Homo sapiens, SW480, Table 4; SW480 cells stably expressing Sp5-Luc reporter, 10-point dose-response from 10 μM, 36 to 48 hours.

CLK3 kinase, sequence (P49761 whole entry): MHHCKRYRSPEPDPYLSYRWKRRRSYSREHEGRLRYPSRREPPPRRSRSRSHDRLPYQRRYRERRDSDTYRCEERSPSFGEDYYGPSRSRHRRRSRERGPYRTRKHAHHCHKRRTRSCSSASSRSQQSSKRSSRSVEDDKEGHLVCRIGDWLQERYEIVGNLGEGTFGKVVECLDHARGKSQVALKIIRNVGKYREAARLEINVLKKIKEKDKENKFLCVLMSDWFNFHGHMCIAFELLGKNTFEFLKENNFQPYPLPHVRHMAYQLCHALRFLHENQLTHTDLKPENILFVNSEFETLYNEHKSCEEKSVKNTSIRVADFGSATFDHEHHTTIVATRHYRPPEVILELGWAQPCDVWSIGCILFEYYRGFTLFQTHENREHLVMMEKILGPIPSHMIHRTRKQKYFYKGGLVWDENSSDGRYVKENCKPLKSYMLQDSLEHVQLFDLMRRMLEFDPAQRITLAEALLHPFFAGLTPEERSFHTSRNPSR
Procedure for CLK3 kinase: This is a non-radioactive assay using fluorescence resonance energy transfer (FRET) between coumarin and fluorescein to detect kinase activity which is represented as a ratio of coumarin emission/fluorescein emission.
The mixture was allowed to incubate with the representative compounds for one hour at room temperature. All reactions were performed in duplicate. Unphosphorylated (“0% Control”) and phosphorylated (“100% control”) forms of Ser/Thr 18 served as control reactions. Additionally, an 11-point dose-response curve of Staurosporine (1 μM top) was run to serve as a positive compound control.
After incubation, Development Reagent A was diluted in Development Buffer then added to the reaction and allowed to further incubate for one hour at room temperature.
Dose-response curves were generated and inhibitory concentration (IC50) values were calculated using non-linear regression curve fit in the Dotmatics' Studies Software (Bishops Stortford, UK).

Regarding `CC(C)(C)CC(=O)Nc1cncc(-c2ccc3[nH]nc(-c4nc5ccncc5[nH]4)c3n2)c1` [compound 203], the EC50 at CLK2 kinase is 11 nM; at CLK3 kinase, 558 nM; in assay [1] it was 10 nM; in assay [2], over 10000 nM. The Emax in assay [1] stood at 54.1%.

On to `Nc1cncc(-c2ccc3[nH]nc(-c4nc5c(-c6ccccc6F)cccc5[nH]4)c3n2)c1` [compound 166], for which the EC50 came to 3 nM on CLK2 kinase, 209 nM at CLK3 kinase, 30 nM in assay [1] and 1070 nM in assay [2]. Moreover, the Emax in assay [1] is 81.8%.

With `COc1cncc(C(=O)Nc2c[nH]nc2C(=O)Nc2ccc(OCCN3CCCC3)nc2)c1` [compound 5], the EC50 is 20 nM at CLK2 kinase, 4930 nM at CLK3 kinase, 10 nM in assay [1] and 22.3 nM in assay [2]. Moreover, the Emax in assay [1] was found to be 106%.

Take `Cc1cn(-c2nccc3[nH]c(-c4n[nH]c5ccc(-c6cncc(NC(=O)C(C)(C)C)c6)nc45)nc23)cn1` [compound 221]: the EC50 at CLK2 kinase was 3 nM; at CLK3 kinase it was 188 nM; in assay [1], 30 nM; in assay [2] it was over 10000 nM. Moreover, the Emax in assay [1] worked out at 69.7%.

In the case of `CCC(=O)Nc1cncc(-c2ccc3[nH]nc(-c4nc5c(-c6ccsc6)cncc5[nH]4)c3c2)c1` [compound 244], the EC50 on CLK2 kinase was 16 nM; on CLK3 kinase it was 64 nM; in assay [1], 30 nM; in assay [2], 2 nM. Also, the Emax in assay [1] worked out at 203%.

On to `Cc1ccncc1-c1ccc2[nH]nc(-c3nc4c(-c5ccsc5)nccc4[nH]3)c2c1` [compound 242], for which the EC50 at CLK2 kinase came out at 15 nM; at CLK3 kinase it was 76 nM; in assay [1], 10 nM; in assay [2] it was 18.9 nM. The Emax in assay [1] worked out at 156%.

For `CCC(=O)Nc1cncc(-c2cc3c(-c4cc5c(N6CCN(C)CC6)nccc5[nH]4)n[nH]c3cn2)c1` [compound 473], the EC50 is 3 nM at CLK2 kinase, 285 nM on CLK3 kinase, 30 nM in assay [1] and over 10000 nM in assay [2]. Moreover, in assay [1], the Emax was 70%.

With `c1cncc(-c2ccc3[nH]nc(-c4cc5cccnc5[nH]4)c3n2)c1` [compound 414], the EC50 on CLK2 kinase was 3 nM; on CLK3 kinase, 1360 nM; in assay [1], 10 nM; in assay [2], over 10000 nM. Further, the Emax in assay [1] was 65.9%.

On to `Cc1ccc(-c2cncc3[nH]c(-c4n[nH]c5ccc(-c6cncc(N)c6)nc45)nc23)s1` [compound 276], for which the EC50 at CLK2 kinase stood at 2 nM; on CLK3 kinase, 9 nM; in assay [1], 30 nM; in assay [2], 40.7 nM. Moreover, the Emax in assay [1] is 79.4%.

For `CCCC(=O)Nc1cncc(-c2cc3c(-c4cc5c(-c6cc(F)cc(NCCN(C)C)c6)ccnc5[nH]4)n[nH]c3cn2)c1` [compound 512], the EC50 on CLK2 kinase is 14 nM; on CLK3 kinase, 94 nM; in assay [1] it was 10 nM; in assay [2], over 10000 nM. The Emax in assay [1] was determined as 162%.

Regarding `Cc1ccc(-c2nccc3[nH]c(-c4n[nH]c5ccc(-c6cncc(N)c6)cc45)nc23)s1` [compound 272], the EC50 on CLK2 kinase is 5 nM; at CLK3 kinase, 52 nM; in assay [1] it was 2700 nM; in assay [2], 1.9 nM. Besides, the Emax in assay [1] was 163%.

`CCCCC(=O)Nc1cncc(-c2ccc3[nH]nc(-c4nc5c(-c6cc(F)cc(NCCN(C)C)c6)ccnc5[nH]4)c3n2)c1` [compound 280]: the EC50 on CLK2 kinase is 2 nM; at CLK3 kinase, 79 nM; in assay [1] it was 10 nM; in assay [2], over 10000 nM. In assay [1], the Emax came out at 71.4%.

`O=C(Nc1cncc(-c2cnc3[nH]nc(-c4cc5c(N6CCCCC6)nccc5[nH]4)c3c2)c1)C1CC1` [compound 460]: the EC50 at CLK2 kinase stood at 8 nM; at CLK3 kinase, 231 nM; in assay [2] it was 3850 nM. Also, the Emax in assay [1] turned out to be 42.5%.

Regarding `Fc1ccc(-c2nccc3[nH]c(-c4n[nH]c5cnc(-c6cncc(CN7CCC(F)(F)C7)c6)cc45)cc23)cc1` [compound 316], the EC50 at CLK2 kinase was 7 nM; on CLK3 kinase it was 417 nM; in assay [1], 10 nM; in assay [2], 291 nM. Moreover, the Emax in assay [1] amounted to 61.2%.

On to `CC(C)CC(=O)Nc1cncc(-c2cc3c(-c4cc5c(-c6cccs6)nccc5[nH]4)n[nH]c3cn2)c1` [compound 506], for which the EC50 was 8 nM on CLK2 kinase, 392 nM on CLK3 kinase, 10 nM in assay [1] and 572 nM in assay [2]. The Emax in assay [1] worked out at 81.4%.

Regarding `CC(C)(C)C(=O)Nc1cncc(-c2ccc3[nH]nc(-c4nc5c(N6CCCCC6)cncc5[nH]4)c3c2)c1` [compound 209], the EC50 worked out at 11 nM at CLK2 kinase, 94 nM at CLK3 kinase, 100 nM in assay [1] and 41 nM in assay [2]. Further, the Emax in assay [1] was determined as 114%.

As for `Cc1cncc(NC(=O)c2n[nH]c3ccc(-c4cncc(CN5CCCCC5)c4)cc23)c1` [compound 79], the EC50 on CLK2 kinase turned out to be 1 nM; at CLK3 kinase it was 352 nM; in assay [1], 300 nM; in assay [2] it was 59 nM. In addition, the Emax in assay [1] was found to be 68.3%.

As to `CS(=O)(=O)NCc1cc(F)cc(-c2nccc3[nH]c(-c4n[nH]c5ccc(-c6cncc(CN7CCCCC7)c6)nc45)cc23)c1` [compound 536], the EC50 on CLK2 kinase was found to be 5 nM; at CLK3 kinase, 79 nM; in assay [1], 10 nM; in assay [2] it was 1100 nM. The Emax in assay [1] amounted to 50.1%.

For `CN(C)Cc1cncc(-c2cnc3[nH]nc(-c4cc5c(-c6ccccc6F)cncc5[nH]4)c3c2)c1` [compound 336], the EC50 stood at 3 nM at CLK2 kinase, 107 nM at CLK3 kinase and 2490 nM in assay [2]. In addition, the Emax in assay [1] stood at 60.9%.

With `CC(C)CC(=O)Nc1cncc(-c2ccc3[nH]nc(-c4cc5c(-c6ccncc6)nccc5[nH]4)c3c2)c1` [compound 387], the EC50 on CLK2 kinase was 5 nM; on CLK3 kinase, 132 nM; in assay [2] it was over 10000 nM. In addition, the Emax in assay [1] was determined as 95.5%.

On to `CN1CCCCN(C)c2nccc3[nH]c(nc23)-c2n[nH]c3ccc(cc23)-c2cncc(c2)C1` [compound 617], for which the EC50 was 2 nM at CLK2 kinase, 12 nM at CLK3 kinase, 5000 nM in assay [1] and 577 nM in assay [2]. For the same compound, the Emax in assay [1] amounted to 231%.

As to `FC1(F)CCN(Cc2cncc(-c3ccc4[nH]nc(-c5nc6c(-c7ccsc7)cncc6[nH]5)c4c3)c2)C1` [compound 253], the EC50 at CLK2 kinase worked out at 7 nM; at CLK3 kinase it was 26 nM; in assay [2] it was 1.8 nM. Besides, in assay [1], the Emax is 81.3%.

With `CCNCc1cncc(-c2cnc3[nH]nc(-c4cc5c(-c6cc(F)cc(CNS(C)(=O)=O)c6)nccc5[nH]4)c3c2)c1` [compound 532], the EC50 at CLK2 kinase was 3 nM; at CLK3 kinase, 305 nM; in assay [1], 300 nM; in assay [2], over 10000 nM. The Emax in assay [1] amounted to 61.2%.

Take `CN(C)c1cncc(-c2ccc3[nH]nc(-c4nc5c(-c6cccc(F)c6)ccnc5[nH]4)c3n2)c1` [compound 133]: the EC50 was determined as 2 nM on CLK2 kinase, 37 nM at CLK3 kinase, 10 nM in assay [1] and 659 nM in assay [2]. For the same compound, in assay [1], the Emax is 83.8%.

With `c1cc2cc(c1)-c1cncc3[nH]c(nc13)-c1n[nH]c3ccc(cc13)-c1cncc(c1)CNC2` [compound 618], the EC50 on CLK2 kinase worked out at 2 nM; at CLK3 kinase, 12 nM; in assay [1], 200 nM; in assay [2], 41.8 nM. For the same compound, the Emax in assay [1] was 558%.

For `CC(C)Nc1cncc(-c2ccc3[nH]nc(-c4nc5c(-c6ccoc6)cncc5[nH]4)c3n2)c1` [compound 239], the EC50 is 2 nM on CLK2 kinase, 87 nM at CLK3 kinase, 30 nM in assay [1] and 597 nM in assay [2]. Besides, the Emax in assay [1] came to 75.3%.

Turning to `CC(C)CC(=O)Nc1ccncc1NC(=O)c1n[nH]c2ccc(-c3cncc(CN4CCCCC4)c3)cc12` [compound 85], the EC50 on CLK2 kinase was found to be 7 nM; at CLK3 kinase, 1800 nM; in assay [2], 25 nM. The Emax in assay [1] came to 45.4%.

For `Clc1ccc(-c2cncc3[nH]c(-c4n[nH]c5ccc(-c6cncc(CN7CCCC7)c6)nc45)nc23)s1` [compound 270], the EC50 at CLK2 kinase is 4 nM; at CLK3 kinase it was 88 nM; in assay [1], 10 nM; in assay [2] it was 3330 nM. Also, the Emax in assay [1] was found to be 62%.

Take `CC(C)CC(=O)Nc1cncc(-c2cc3c(-c4cc5c(-c6cc(F)cc(CNS(C)(=O)=O)c6)cncc5[nH]4)n[nH]c3cn2)c1` [compound 524]: the EC50 on CLK2 kinase was 15 nM; at CLK3 kinase, 198 nM; in assay [2] it was over 10000 nM. The Emax in assay [1] was found to be 24.2%.

Turning to `Oc1cncc(-c2ccc3[nH]nc(-c4nc5c(-c6cccc(F)c6)nccc5[nH]4)c3n2)c1` [compound 144], the EC50 at CLK2 kinase is 5 nM; at CLK3 kinase, 93 nM; in assay [1], 6.86 nM; in assay [2] it was 460 nM. Also, the Emax in assay [1] came out at 56.7%.
